Earlier results, collected in PMC9516332 (Frontiers in Oncology, 2022).
Like-named read-outs stand apart in the source and are kept apart here.

Tests used:
[1] = molecular target: T1, panel of 255 wild-type kinases (Homo sapiens, UniProt O14965); conditions: cited from earlier work
T1 sequence (O14965 1-403): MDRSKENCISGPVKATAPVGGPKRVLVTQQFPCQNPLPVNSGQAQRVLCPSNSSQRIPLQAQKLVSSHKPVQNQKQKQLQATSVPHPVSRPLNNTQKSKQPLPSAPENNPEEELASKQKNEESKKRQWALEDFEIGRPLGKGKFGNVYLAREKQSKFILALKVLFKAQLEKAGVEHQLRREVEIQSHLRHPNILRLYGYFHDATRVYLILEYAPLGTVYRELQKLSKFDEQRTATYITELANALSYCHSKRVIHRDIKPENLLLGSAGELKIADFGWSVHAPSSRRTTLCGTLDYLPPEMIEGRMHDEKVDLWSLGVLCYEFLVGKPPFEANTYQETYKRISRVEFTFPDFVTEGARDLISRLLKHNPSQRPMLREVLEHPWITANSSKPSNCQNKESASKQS

[2] = molecular target: panel of 255 wild-type kinases (Homo sapiens, UniProt P11309); conditions: kinase PIM1, 1 µmol/L single concentration, cited from earlier work
[3] = molecular target: panel of 255 wild-type kinases (Homo sapiens, UniProt P22612); conditions: kinase PKACγ, 1 µmol/L single concentration, cited from earlier work
[4] = molecular target: panel of 255 wild-type kinases (Homo sapiens, UniProt P22694); conditions: kinase PKACβ, 1 µmol/L single concentration, cited from earlier work
[5] = molecular target: T2, panel of 255 wild-type kinases (Homo sapiens, UniProt P54760); conditions: kinase EPHB4, 1 µmol/L single concentration, cited from earlier work
T2 sequence (P54760 16-987): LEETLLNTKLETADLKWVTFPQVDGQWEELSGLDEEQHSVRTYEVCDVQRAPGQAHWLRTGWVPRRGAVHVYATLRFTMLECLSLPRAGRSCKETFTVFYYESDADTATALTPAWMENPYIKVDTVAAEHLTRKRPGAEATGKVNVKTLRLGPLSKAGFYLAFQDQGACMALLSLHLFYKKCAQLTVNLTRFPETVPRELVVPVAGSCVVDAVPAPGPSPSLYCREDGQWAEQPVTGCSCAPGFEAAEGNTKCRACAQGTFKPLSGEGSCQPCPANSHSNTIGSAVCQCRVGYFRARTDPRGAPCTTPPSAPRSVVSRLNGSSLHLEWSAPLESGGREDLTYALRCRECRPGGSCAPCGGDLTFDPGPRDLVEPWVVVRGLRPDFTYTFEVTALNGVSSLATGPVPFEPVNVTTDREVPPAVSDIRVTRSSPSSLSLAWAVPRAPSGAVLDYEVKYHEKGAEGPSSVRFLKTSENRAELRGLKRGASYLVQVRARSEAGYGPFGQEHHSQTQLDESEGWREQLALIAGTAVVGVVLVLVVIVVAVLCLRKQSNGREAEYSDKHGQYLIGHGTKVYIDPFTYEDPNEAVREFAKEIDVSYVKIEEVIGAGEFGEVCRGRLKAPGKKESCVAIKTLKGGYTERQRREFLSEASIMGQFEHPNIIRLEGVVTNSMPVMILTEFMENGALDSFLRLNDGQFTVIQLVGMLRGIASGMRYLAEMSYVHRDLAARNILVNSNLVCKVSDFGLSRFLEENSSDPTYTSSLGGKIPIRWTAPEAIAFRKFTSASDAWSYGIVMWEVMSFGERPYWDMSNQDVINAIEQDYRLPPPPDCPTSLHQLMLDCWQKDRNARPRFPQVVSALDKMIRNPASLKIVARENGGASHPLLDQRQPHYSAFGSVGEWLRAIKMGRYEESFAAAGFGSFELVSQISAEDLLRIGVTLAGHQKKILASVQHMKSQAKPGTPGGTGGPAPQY

[6] = molecular target: panel of 255 wild-type kinases (Homo sapiens, UniProt Q13555); conditions: CaMK2γ kinase assay, 1 µmol/L single concentration, cited from earlier work
[7] = molecular target: panel of 255 wild-type kinases (Homo sapiens, UniProt Q14012); conditions: CaMK1α kinase assay, 1 µmol/L single concentration, cited from earlier work
[8] = molecular target: panel of 255 wild-type kinases (Homo sapiens, UniProt Q16512); conditions: kinase PKN1, 1 µmol/L single concentration, cited from earlier work
[9] = molecular target: panel of 255 wild-type kinases (Homo sapiens, UniProt Q9H0K1); conditions: kinase QIK, 1 µmol/L single concentration, cited from earlier work
[10] = molecular target: panel of 255 wild-type kinases (Homo sapiens, UniProt Q9H1R3); conditions: kinase skMLCK, 1 µmol/L single concentration, cited from earlier work
[11] = molecular target: panel of 255 wild-type kinases (Homo sapiens, UniProt Q9HBH9); conditions: MNK2, 1 µmol/L single concentration, cited from earlier work
[12] = system: panel of 255 wild-type kinases; conditions: cited from earlier work
[13] = molecular target: panel of 255 wild-type kinases (Homo sapiens, UniProt P00533); conditions: kinase EGFR; 1 µmol/L single concentration; ref DOI: 10.1158/1535-7163.MCT-18-0877; cited from earlier work
[14] = AurA kinase assay, 1 µmol/L single concentration, ref DOI: 10.1158/1535-7163.MCT-18-0877
[15] = AurA/TPX2 kinase assay, 1 µmol/L single concentration, ref DOI: 10.1158/1535-7163.MCT-18-0877
[16] = ref DOI: 10.1158/1535-7163.MCT-18-0877
[17] = kinase FYN [isoform b], 1 µmol/L single concentration, ref DOI: 10.1158/1535-7163.MCT-18-0877
[18] = kinase LYNb, 1 µmol/L single concentration, ref DOI: 10.1158/1535-7163.MCT-18-0877
[19] = kinase PKCβ2, 1 µmol/L single concentration, ref DOI: 10.1158/1535-7163.MCT-18-0877
[20] = kinase SRM, 1 µmol/L single concentration, ref DOI: 10.1158/1535-7163.MCT-18-0877
[21] = ref DOI: 10.1371/journal.pone.0092146

SMILES: CCc1cc2c(cc1N1CCC(N3CCOCC3)CC1)C(C)(C)c1[nH]c3cc(C#N)ccc3c1C2=O [alectinib]
- %-inhibition AurA [1, 14]: 5%
- %-inhibition AurA/TPX2 [1, 15]: -3%
- %-inhibition at 1 µmol/L, PIM1 [2, 16]: 15%
- %-inhibition at 1 µmol/L, PKACγ [3, 16]: 3%
- %-inhibition at 1 µmol/L, PKACβ [4, 16]: 2%
- %-inhibition at 1 µmol/L, EPHB4 [5, 16]: 11%
- %-inhibition CaMK2γ [6, 16]: 6%
- %-inhibition CaMK1α [7, 16]: 2.11%
- %-inhibition at 1 µmol/L, PKN1 [8, 16]: 13%
- %-inhibition at 1 µmol/L, QIK [9, 16]: 3%
- %-inhibition at 1 µmol/L, skMLCK [10, 16]: -11%
- %-inhibition, MNK2 [11, 16]: 13%
- %-inhibition at 1 µmol/L, FYN [isoform b] [12, 17]: 12%
- %-inhibition at 1 µmol/L, LYNb [12, 18]: 15%
- %-inhibition at 1 µmol/L, PKCβ2 [12, 19]: 0.0492%
- %-inhibition at 1 µmol/L, SRM [12, 20]: 41%

SMILES: Cc1cc(Nc2ncc(Cl)c(Nc3ccccc3S(=O)(=O)C(C)C)n2)c(OC(C)C)cc1C1CCNCC1 [ceritinib]
- %-inhibition AurA [1, 14]: 12%
- %-inhibition AurA/TPX2 [1, 15]: 2.84%
- %-inhibition at 1 µmol/L, PIM1 [2, 16]: -8%
- %-inhibition at 1 µmol/L, PKACγ [3, 16]: 1.46%
- %-inhibition at 1 µmol/L, PKACβ [4, 16]: -11%
- %-inhibition at 1 µmol/L, EPHB4 [5, 16]: 3.73%
- %-inhibition CaMK2γ [6, 16]: 32%
- %-inhibition CaMK1α [7, 16]: 37%
- %-inhibition at 1 µmol/L, PKN1 [8, 16]: 25%
- %-inhibition at 1 µmol/L, QIK [9, 16]: 7.41%
- %-inhibition at 1 µmol/L, skMLCK [10, 16]: -9%
- %-inhibition, MNK2 [11, 16]: 76%
- %-inhibition at 1 µmol/L, FYN [isoform b] [12, 17]: -4%
- %-inhibition at 1 µmol/L, LYNb [12, 18]: 11%
- %-inhibition at 1 µmol/L, PKCβ2 [12, 19]: 4%
- %-inhibition at 1 µmol/L, SRM [12, 20]: 40%

SMILES: C[C@@H](Oc1cc(-c2cnn(C3CCNCC3)c2)cnc1N)c1c(Cl)ccc(F)c1Cl [crizotinib]
- %-inhibition at 1 µmol/L, PIM1 [2, 21]: -7%
- %-inhibition at 1 µmol/L, PKACγ [3, 21]: -6.52%
- %-inhibition at 1 µmol/L, PKACβ [4, 21]: -2.3%
- %-inhibition at 1 µmol/L, EPHB4 [5, 21]: 83%
- %-inhibition CaMK2γ [6, 21]: -10%
- %-inhibition CaMK1α [7, 21]: 0.734%
- %-inhibition at 1 µmol/L, PKN1 [8, 21]: 23%
- %-inhibition at 1 µmol/L, QIK [9, 21]: 38%
- %-inhibition, MNK2 [11, 21]: 2%
- %-inhibition at 1 µmol/L, LYNb [12]: 34%
- %-inhibition at 1 µmol/L, PKCβ2 [12]: -1.6%
- %-inhibition at 1 µmol/L, SRM [12]: 1.51%

SMILES: CC(C)(C)c1nc(-c2cccc(NS(=O)(=O)c3c(F)cccc3F)c2F)c(-c2ccnc(N)n2)s1 [dabrafenib]
- %-inhibition CaMK2γ [6, 21]: -5.47%
- %-inhibition at 1 µmol/L, PKN1 [8, 21]: -2.84%
- %-inhibition at 1 µmol/L, QIK [9, 21]: 80%
- %-inhibition at 1 µmol/L, skMLCK [10, 21]: 0.52%
- %-inhibition at 1 µmol/L, LYNb ([12]; kinase LYNb, 1 µmol/L single concentration, ref DOI: 10.1371/journal.pone.0092146): 86%
- %-inhibition at 1 µmol/L, PKCβ2 ([12]; kinase PKCβ2, 1 µmol/L single concentration, ref DOI: 10.1371/journal.pone.0092146): -3%
- %-inhibition at 1 µmol/L, SRM ([12]; kinase SRM, 1 µmol/L single concentration, ref DOI: 10.1371/journal.pone.0092146): 100%

SMILES: C=CC(=O)N1CCC[C@@H](n2nc(-c3ccc(Oc4ccccc4)cc3)c3c(N)ncnc32)C1 [ibrutinib]
- %-inhibition AurA [1, 14]: 30%
- %-inhibition AurA/TPX2 [1, 15]: -2.33%
- %-inhibition at 1 µmol/L, PKACγ [3, 16]: 5%
- %-inhibition at 1 µmol/L, PKACβ [4, 16]: -9%
- %-inhibition at 1 µmol/L, EPHB4 [5, 16]: 27%
- %-inhibition CaMK2γ [6, 16]: -1.83%
- %-inhibition CaMK1α [7, 16]: 14%
- %-inhibition at 1 µmol/L, PKN1 [8, 16]: 9%
- %-inhibition at 1 µmol/L, QIK [9, 16]: 4.7%
- %-inhibition at 1 µmol/L, skMLCK [10, 16]: -17%
- %-inhibition, MNK2 [11, 16]: 20%
- %-inhibition at 1 µmol/L, FYN [isoform b] [12, 17]: 87%
- %-inhibition at 1 µmol/L, LYNb [12, 18]: 100%
- %-inhibition at 1 µmol/L, PKCβ2 [12, 19]: 1.78%
- %-inhibition at 1 µmol/L, SRM [12, 20]: 102%

SMILES: CO[C@@H]1[C@H](N(C)C(=O)c2ccccc2)C[C@H]2O[C@]1(C)n1c3ccccc3c3c4c(c5c6ccccc6n2c5c31)C(=O)NC4 [midostaurin]
- %-inhibition AurA [1]: 100%
- %-inhibition AurA/TPX2 [1]: 91%
- %-inhibition at 1 µmol/L, EGFR [13]: 69%
- %-inhibition at 1 µmol/L, PIM1 [2, 16]: 52%
- %-inhibition at 1 µmol/L, PKACγ [3, 16]: 81%
- %-inhibition at 1 µmol/L, PKACβ [4, 16]: 91%
- %-inhibition at 1 µmol/L, EPHB4 [5, 16]: 1.2%
- %-inhibition at 1 µmol/L, skMLCK [10, 16]: 0.93%
- %-inhibition, MNK2 [11, 16]: 80%

SMILES: C=CC(=O)Nc1cc(Nc2nccc(-c3cn(C)c4ccccc34)n2)c(OC)cc1N(C)CCN(C)C [osimertinib]
- %-inhibition AurA [1, 14]: 9%
- %-inhibition AurA/TPX2 [1, 15]: 7.38%
- %-inhibition at 1 µmol/L, PIM1 [2, 16]: -4.4%
- %-inhibition at 1 µmol/L, PKACγ [3, 16]: 7.4%
- %-inhibition at 1 µmol/L, PKACβ [4, 16]: -6%
- %-inhibition at 1 µmol/L, EPHB4 [5, 16]: -3%
- %-inhibition CaMK2γ [6, 16]: 4.25%
- %-inhibition CaMK1α [7, 16]: 10%
- %-inhibition at 1 µmol/L, PKN1 [8, 16]: 14%
- %-inhibition at 1 µmol/L, QIK [9, 16]: 33%
- %-inhibition at 1 µmol/L, skMLCK [10, 16]: -4%
- %-inhibition, MNK2 [11, 16]: 97%
- %-inhibition at 1 µmol/L, FYN [isoform b] [12]: 14%
- %-inhibition at 1 µmol/L, LYNb [12]: 10%
- %-inhibition at 1 µmol/L, PKCβ2 [12]: 17%
- %-inhibition at 1 µmol/L, SRM [12]: 32%
